Test results: patent US20230203485A1, “METHODS FOR MODULATING MHC-I EXPRESSION AND IMMUNOTHERAPY USES THEREOF” (Dana-Farber Cancer Institute, Inc., priority 2020, published 2023)

Tested on: class I antigen presentation gene expression in MCC cell lines
Experiment: RNA-seq / DESeq2 differential expression of MCC cell lines at baseline and after IFN-γ stimulation
Type: cell-based, human
Settings: 11 MCC cell lines, baseline vs IFNγ, negative LFC = upregulation in IFNγ-treated
Description: FIG. 2A comprises RNA-seq heatmaps of class I antigen presentation gene expression in MCC lines and controls.
FIG. 2B is a volcano plot of differentially expressed genes (genes below FDR cutoff 0.01 are shown in yellow) between baseline and IFN-γ-treated MCC cell lines. Differential expression analysis was performed using DESeq2, and negative LFC indicates increased expression in +IFN-γ samples. IFN genes are highlighted in red.
RNA samples were first assessed for quality using the Agilent Bioanalyzer (DV200 metric). One hundred ng of RNA were used as the input for first strand cDNA synthesis using Superscript III reverse transcriptase and Illumina's TruSeq RNA Access Sample Prep Kit. Synthesis of the second strand of cDNA was followed by indexed adapter ligation with UMI (unique molecular index) adaptors. Subsequent PCR amplification enriched for adapted fragments. Amplified libraries were quantified, normalized, pooled, and hybridized with exome targeting oligos. Following hybridization, bead clean-up, elution and PCR was performed to prepare library pools for sequencing on Illumina flowcell lanes. Transcriptomes were sequenced to a coverage of at least 50 million reads in pairs.
Raw fastq files for fibroblast and keratinocyte control lines were downloaded from SRA using R Bioconductor package SRAdb (Mayakonda et al. (2018) supra; Zhu et al. (2013) BMC Bioinformatics 14 (1): 1-4) using accession codes SRP126422 (4 replicates from control samples ‘NN’) and SRP131347 (6 replicates with condition: control and genotype: control). These fastq files, along with those for the mkl1 and waga cell lines, were aligned using STAR version 2.7.3a (Dobin et al. (2013) Bioinformatics 29 (1): 15-21), using index genome reference file downloaded from ftp.ebi.ac.uk/pub/databases/gencode/Gencode_human/release_19/GRCh37.p13.genome.fa.gz, transcript annotation file downloaded from data.broadinstitute.org/snowman/hg19/star/gencode.v19.annotation.gtf, and with the following options: --twopassMode Basic, --outSAMstrandField intronMotif, --alignIntronMax 1000000, --alignMatesGapMax 1000000, --sjdbScore 2, --outSAMtype BAM Unsorted, --outSAMattributes NH HI NM MD AS XS, --outFilterType BySJout, --outSAMunmapped Within, --genomeLoad NoSharedMemory, --outFilterScoreMinOverLread 0, --outFilterMatchNminOverLread 0, --outFilterMismatchNmax 999, and outFilterMultimapNmax 20. Duplicates were marked with picard MarkDuplicates version 2.22.0-SNAPSHOT.
RNA-sequencing bam files for MCC tumor and cell line samples were downloaded from the Broad Genomics Firecloud/Terra platform using the Google Cloud Storage command line tool gsutil version 4.5 (github.com/GoogleCloudPlatform/gsutil/).
Gene counts were obtained from bam files using featureCounts version 2.0.0 (doi.org/10.1093/bioinformatics/btt656). Very lowly expressed genes with average count across samples less than 1 were excluded from analysis. Between-sample distance metrics were computed using the Euclidean distance on the vectors of variance-stabilized counts obtained from the vst function in the DESeq2 R Bioconductor package ([…]; Love et al. (2014) Genome Biology 15 (12): 550).
Differential expression analysis was carried out between (1) viral positive and viral negative samples (adjusting for cell line or tumor as a covariate), (2) cell line and tumor samples (adjusting for viral status as a covariate), and (3) IFNγ plus and minus samples (adjusting for viral status as a covariate) using the negative binomial GLM Wald test of DESeq2, where significance was assessed using the p-values adjusted for multiple comparisons under default settings. To account for potential global gene expression differences among sample groups, RUVg (Risso et al. (2014) […] 32 (9): 896-902) was used to estimate latent factors of unwanted variation from the list of housekeeping genes downloaded from www.tau.ac.il/˜elieis/HKG/HK_genes.txt. […]

## IFN-y: type II interferon, recombinant human, used to treat MCC cells
  log2FoldChange PLCH1 (ENSG00000114805.12): −3.192
  log2FoldChange PLSCR1 (ENSG00000188313.8): −1.918
  log2FoldChange PSMA1 (ENSG00000129084.13): −0.53
  log2FoldChange PSMA5 (ENSG00000143106.8): −0.7265
  log2FoldChange PSMB8 (ENSG00000204264.4): −4.624
  log2FoldChange PSMB8-AS1 (ENSG00000204261.4): −4.829
  log2FoldChange PSMB9 (ENSG00000240065.3): −8.037
  log2FoldChange RAB19 (ENSG00000146955.6): −3.348
  log2FoldChange RALB (ENSG00000144118.9): −1.199
  log2FoldChange RARRES3 (ENSG00000133321.6): −9.075
  log2FoldChange RASGRP3 (ENSG00000152689.13): −3.804
  log2FoldChange RCN1 (ENSG00000049449.4): −0.8151
  log2FoldChange RNASET2 (ENSG00000026297.11): −1.4
  log2FoldChange RNF19B (ENSG00000116514.12): −0.8512
  log2FoldChange RPS6KA2-AS1 (ENSG00000231654.1): −4.029
  log2FoldChange RSAD2 (ENSG00000134321.7): −4.639
  log2FoldChange RTP4 (ENSG00000136514.2): −9.766
  log2FoldChange RUFY4 (ENSG00000188282.8): −4.154
  log2FoldChange SAMD9L (ENSG00000177409.7): −9.221
  log2FoldChange SCYL3 (ENSG00000000457.9): −0.6381
  log2FoldChange SERPING1 (ENSG00000149131.11): −10.06
  log2FoldChange SERPINI2 (ENSG00000114204.10): −4.132
  log2FoldChange SLC15A3 (ENSG00000110446.5): −6.048
  log2FoldChange SMCO3 (ENSG00000179256.2): −4.85
  log2FoldChange SP100 (ENSG00000067066.12): −6.178
  log2FoldChange SP110 (ENSG00000135899.12): −5.912
  log2FoldChange SP140 (ENSG00000079263.14): −4.071
  log2FoldChange SP140L (ENSG00000185404.12): −4.749
  log2FoldChange SPATA1 (ENSG00000122432.12): −1.828
  log2FoldChange SRD5A3-AS1 (ENSG00000249700.4): −1.935
  log2FoldChange STAT1 (ENSG00000115415.14): −4.434
  log2FoldChange STAT2 (ENSG00000170581.9): −2.028
  log2FoldChange SYNJ2 (ENSG00000078269.9): −1.182
  log2FoldChange TAP1 (ENSG00000168394.9): −6.326
  log2FoldChange TAP2 (ENSG00000204267.9): −4.845
  log2FoldChange TAPBP (ENSG00000231925.7): −2.025
  log2FoldChange TAPBPL (ENSG00000139192.7): −2.548
  log2FoldChange TCAF2 (ENSG00000170379.15): −3.033
  log2FoldChange TDRD7 (ENSG00000196116.6): −0.8648
  log2FoldChange TLR3 (ENSG00000164342.8): −6.019
  log2FoldChange TMEM108-AS1 (ENSG00000251011.1): −3.649
  log2FoldChange TMEM140 (ENSG00000146859.6): −7.381
  log2FoldChange TNFRSF14 (ENSG00000157873.13): −3.995
  log2FoldChange TNFSF10 (ENSG00000121858.6): −4.43
  log2FoldChange TRIM5 (ENSG00000132256.14): −4.923
  log2FoldChange TRIM21 (ENSG00000132109.8): −5.586
  log2FoldChange TRIM22 (ENSG00000132274.11): −9.394
  log2FoldChange TRIM26 (ENSG00000234127.4): −0.6803
  log2FoldChange TRIM56 (ENSG00000169871.8): −2.411
  log2FoldChange UBA7 (ENSG00000182179.6): −5.004
  log2FoldChange UBE2L6 (ENSG00000156587.11): −4.982
  log2FoldChange UBR2 (ENSG00000024048.6): −0.9247
  log2FoldChange USP33 (ENSG00000077254.10): −0.3836
  log2FoldChange USP42 (ENSG00000106346.7): −0.5211
  log2FoldChange WDR49 (ENSG00000174776.6): −4.564
  log2FoldChange ZC3HAV1 (ENSG00000105939.8): −1.2
ACP5 ENSG00000102575.6
  log2FoldChange: −3.911
B2M ENSG00000166710.13
  log2FoldChange: −3.927
BCO1 ENSG00000135697.5
  log2FoldChange: −3.705
BST2 ENSG00000130303.8
  log2FoldChange: −9.567
C19orf38 ENSG00000214212.4
  log2FoldChange: −2.581
C19orf66 ENSG00000130813.13
  log2FoldChange: −3.602
CAPN3 ENSG00000092529.18
  log2FoldChange: −1.639
CCDC194 ENSG00000269720.1
  log2FoldChange: −5.08
CCL8 ENSG00000108700.4
  log2FoldChange: −4.991
CCL25 ENSG00000131142.9
  log2FoldChange: −5.742
CEACAM1 ENSG00000079385.17
  log2FoldChange: −6.01
CIITA ENSG00000179583.13
  log2FoldChange: −10.08
CX3CL1 ENSG00000006210.6
  log2FoldChange: −2.039
DGLUCY ENSG00000133943.16
  log2FoldChange: −1.417
DHX58 ENSG00000108771.8
  log2FoldChange: −3.063
DLGAP1-AS5 ENSG00000261520.1
  log2FoldChange: −7.006
DOCK9 ENSG00000088387.13
  log2FoldChange: −1.102
DRAM1 ENSG00000136048.9
  log2FoldChange: −2.646
ENSG00000225131.1 (symbol NA)
  log2FoldChange: −1.967
ENSG00000238045.5 (symbol NA)
  log2FoldChange: −1.974
ENSG00000238528.1 (symbol NA)
  log2FoldChange: −1.287
ENSG00000258733.1 (symbol NA)
  log2FoldChange: −3.393
